# Source: US4966916A (priority 1989, dated 1990)
# Entries after “also recorded” stand apart in the source; their conditions may differ. Read-outs that look alike come from different tables or passages of the source.
# Legend:
# [1] = molecular target: nicotine receptor, rat brain membranes; assay type: binding
# [2] = molecular target: nicotine receptor, rat brain membranes; assay type: binding; remark: listed apart in the source
# [3] = system: nicotine-induced prostration in rats; design: species or system Sprague-Dawley male rats; conditions: rat, in vivo
# [4] = system: nicotine receptor, rat brain membranes; assay type: binding; conditions: for IC50: read-out: [3H]-MCC IC50
# [5] = system: nicotine receptor, rat brain membranes; assay type: binding; conditions: for IC50: read-out: [3H]-nicotine IC50
# [6] = system: rats or mice; conditions: in vivo; cited from earlier work
# [7] = system: nicotine-induced seizures in rats; conditions: rat, in vivo
# [8] = system: [3H]-nicotine binding sites in rat brain membranes
# [9] = system: nicotine mortality in rats; conditions: rat, in vivo
# [10] = system: nicotinic cholinergic and nicotine-like binding sites in rat brain membranes
# [11] = system: rats; design: species or system Sprague-Dawley male rats; conditions: rat, in vivo
# [12] = system: hypertensive action of nicotine in anesthetized rats; conditions: rat, in vivo, iv
# [13] = system: hypertensive action of nicotine in anesthetized rats; test: animal or person; conditions: Rattus norvegicus, iv
# [14] = read-out: 3H-Nicotine Binding IC50
compound,measurement,setting,value
DMAE naphthoate [DMAE napththoate],IC50,[1]; [14],80 µM
same,IC50,[2]; read-out: 3H-MCC Binding IC50,70 µM
C[N+](C)(C)CCOC(=O)Cc1ccccc1 [TMAE phenylacetate],antagonism of nicotine-induced prostration / nicotine actions,[3],next in effectiveness
CNC(=O)OC1CCN(Cc2ccccc2)CC1 [N-benzyl-4-piperdyl methylcarbamate],IC50,[1]; [14],> 100 µM
same,IC50,[2]; read-out: 3H-MCC Binding IC50,> 100 µM
CCCN1CCCC1c1cccnc1 (stereo not shown) [N'-propyl nornicotine],decrease in affinity versus nicotine,[4],200 fold
same,decrease in affinity versus nicotine,[5],200 fold
α-bungarotoxin,IC50,[4],> 100 µM
same,Kd,[5],> 100 µM
same,IC50,[5],> 100 µM
C[N+]1(C)CCCC1c1cccnc1 (stereo not shown) [N'-methyl nicotonium],seizures and mortality relative to nicotine,[6],more potent than nicotine in producing seizures and mortality
"CN(C)CCOC(=O)C1CCCCC1 [DMAE cyclohexylcarboxylate, dimethylaminoethyl cyclohexylcarboxylate]",% Antagonism of seizures,[7],50%
same,Seizures (rats with seizures/total),[7],4/8
same,seizures,[7],about half of the rats exhibited seizures
"C[N+](C)(C)CCOC(=O)CCC(=O)OCC[N+](C)(C)C [TMAE succinate, succinylcholine]",IC50,[1]; [14],0.8 µM
same,IC50,[1]; read-out: IC50 for 3H-nicotine,~50 µM
same,IC50,[2]; read-out: 3H-MCC Binding IC50,0.7 µM
same,IC50,[2]; read-out: IC50 for 3H-MCC,~50 µM
N-benzylpiperidyl methylcarbamate,IC50,[1]; [14],> 100 µM
same,IC50,[2]; read-out: 3H-MCC Binding IC50,> 100 µM
CN(C)CCOC(=O)c1cccnc1 [DMAE nicotinate],antagonism of nicotine-induced prostration / nicotine actions,[3],next in effectiveness; also recorded: antagonistic to the nicotine-induced prostration
CCN1CCCC1c1cccnc1 (stereo not shown) [N'-ethyl nornicotine],decrease in affinity versus nicotine,[4],3 fold
same,IC50,[4],0.1 µM
same,decrease in affinity versus nicotine,[5],3 fold
same,IC50,[2]; read-out: 3H-MCC Binding IC50,0.1 µM
COC(=O)[C@H]1[C@@H](OC(=O)c2ccccc2)C[C@@H]2CC[C@H]1N2C [cocaine],antagonism of nicotine-induced prostration / nicotine actions,[3],effectively block nicotine-induced prostration
same,antagonist activity,[3],inactive
"CN1CCCC1c1cccnc1 (single isomer, unassigned; (-)) [[^3 H]-nicotine, (-)-[^3 H]-nicotine]","Bmax, higher affinity site",[8],5e-15 mol/mg
CN1[C@@H]2CC[C@H]1C[C@@H](OC(=O)C(CO)c1ccccc1)C2 (stereo partly shown) [atropine],% Antagonism of seizures,[7],0%
same,Seizures (rats with seizures/total),[7],6/6
same,protection against nicotine mortality,[9],ineffective
CNC(=O)Oc1ccc2c(c1)[C@]1(C)CCN(C)[C@@H]1N2C [physostigmin],antagonist activity,[3],inactive
C[N+](C)(C)CCOC(=O)Nc1ccccc1 [TMAE phenylcarbamate],% Antagonism of seizures,[7],89%
same,Seizures (rats with seizures/total),[7],1/9
same,protection against seizures,[7],almost complete protection
same,antagonism of nicotine-induced prostration / nicotine actions,[3],next in effectiveness
same,% Antagonism of mortality,[9],50%
same,Mortality (dead/total),[9],4/10
same,protection against nicotine mortality,[9],50%
CN1[C@@H](CC(=O)c2ccccc2)CCC[C@H]1C[C@H](O)c1ccccc1 [α-lobeline],binding affinity,[1],even greater affinity than (-)-nicotine; also recorded: very high affinity for brain nicotine receptors
same,% Antagonism of seizures,[7],0/8
same,Seizures (rats with seizures/total),[7],1/8
same,protection against seizures,[7],complete protection against seizures
same,antagonist activity,[3],"most effective antagonist in blocking the prostration, seizures, and mortality"
same,dose blocking nicotine-induced prostration,[3],10 nmol
same,% Antagonism of mortality,[9],75%
same,Mortality (dead/total),[9],2/10
same,reduction of the mortality,[9],75%
CCN(CC)CC(=O)Nc1c(C)cccc1C [lidocaine],antagonist activity,[3],inactive
"[3H]C([3H])([3H])[N+](C)(C)CCOC(=O)NC [[^3 H]-MCC, [^3 H]-methylcarbamyl choline]",Bmax (Scatchard analysis),[10],4.0×10^-14 moles/mg protein
same,rate constant for association,[10]; brain membranes,300000 M⁻¹ s⁻¹
same,rate constant for dissociation,[10]; brain membranes,0.001 s⁻¹
CN(C)CCOC(N)=O [DMAE carbamate],behavioral effect,[11],only a similar effect
CN(C)C(=O)Oc1cccc([N+](C)(C)C)c1 [prostigmin],antagonist activity,[3],inactive
C[N+](C)(C)CCOC(=S)Nc1ccccc1 [TMAE phenylthiocarbamate],antagonism of nicotine-induced prostration / nicotine actions,[3],next in effectiveness
same,% Antagonism of mortality,[9],63%
same,Mortality (dead/total),[9],3/10
same,protection against nicotine mortality,[9],63%
"C[N+](C)(C)CCOC(=O)c1ccccc1 [TMAE benzoate, benzoylcholine]",% Antagonism of seizures,[7],78%
same,Seizures (rats with seizures/total),[7],1/8
same,effectiveness relative to the DMAE ester,[3],5 times
same,% Antagonism of mortality,[9],63%
same,Mortality (dead/total),[9],3/10
same,protection against nicotine mortality,[9],63%
CCN(CC)CCOC(=O)c1ccc(N)cc1 [procaine],antagonism of nicotine-induced prostration / nicotine actions,[3],effectively block nicotine-induced prostration
same,antagonist activity,[3],antagonists
"CN1CCCC1c1cccnc1 (single isomer, unassigned; (-)) [(-)-nicotine]",increase in systolic blood pressure,[12],25%
same,symptoms,[7],"prostration followed by tremors, fasciculations, cyanosis and labored breathing, and myoclonic seizures"
same,Seizures (rats with seizures/total),[7]; 1.5 mg/kg,10/10
same,action on prostration,[11],agonists
same,behavioral / respiratory effects,[11],deep diaphragmatic breathing and a decreased respiratory rate
same,Mortality (dead/total),"[9]; ip, 3 mg/kg",8/10
C[N+](C)(C)CCCCCC[N+](C)(C)C [hexamethonium],IC50,[4],> 100 µM
same,Kd,[5],> 100 µM
same,IC50,[5],> 100 µM
"CN(C)CCOC(=O)c1ccccc1 [DMAE benzoate, dimethylaminoethyl benzoate]",% Antagonism of seizures,[7],45%
same,Seizures (rats with seizures/total),[7],5/9
"C[N+](C)(C)CCOC(=O)C1CCCCC1 [TMAE cyclohexylcarboxylate, choline ester of cyclohexylcarboxylic acid]",ED100,[13]; read-out: Antagonistic dose (±s.d.) to completely block elevation in systolic blood pressure,5 ± 1.5 mg/kg
same,ED100,[13]; read-out: dose completely reversing increase in systolic blood pressure,1.5 mg/kg
same,% Antagonism of seizures,[7],78%
same,Seizures (rats with seizures/total),[7],1/8
same,protection against nicotine mortality,[9],66%
CN(C)c1cccnc1 [3-dimethylaminopyridine],action on prostration,[11],agonists
TMAE naphthoate [TMAE napththoate],IC50,[1]; [14],9 µM
same,IC50,[2]; read-out: 3H-MCC Binding IC50,5 µM
